In paper PMC10321576, “Cyclic peptides target the aromatic cage of a PHD-finger reader domain to modulate epigenetic protein function” (Chemical Science, 2023):
Read-outs that look alike come from different tables or passages of the source. Ends that are not written are not given here. Peptide text beside a SMILES is read from it.

Experiments:
KDM7A dual domain = KDM7A dual domain (Homo sapiens, UniProt Q6ZMT4); assay: MALDI-TOF-MS KDM7 activity assay (H3 peptide demethylation); type: biochemical
Chain of KDM7A dual domain (Q6ZMT4 38-480 limits assumed): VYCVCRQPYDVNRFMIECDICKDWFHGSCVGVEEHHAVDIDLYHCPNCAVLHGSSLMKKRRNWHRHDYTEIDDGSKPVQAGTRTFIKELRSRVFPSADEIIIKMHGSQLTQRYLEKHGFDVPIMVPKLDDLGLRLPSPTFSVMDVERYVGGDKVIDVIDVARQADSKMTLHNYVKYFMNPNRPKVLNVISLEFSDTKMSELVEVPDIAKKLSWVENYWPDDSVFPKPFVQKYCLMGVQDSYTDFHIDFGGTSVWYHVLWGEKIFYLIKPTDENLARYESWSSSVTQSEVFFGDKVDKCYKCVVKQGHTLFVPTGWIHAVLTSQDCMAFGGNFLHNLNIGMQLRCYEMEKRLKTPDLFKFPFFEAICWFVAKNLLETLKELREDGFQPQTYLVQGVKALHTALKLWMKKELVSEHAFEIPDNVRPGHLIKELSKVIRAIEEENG
Experimental: Fig. 5 KDM7 PHD-finger inhibition by OC9 modulates dual domain JmjC activity. (a) (i–iii) OC9 inhibits demethylation of H3K9me2, with or without K4me3, by KDM7B (0.4 μM) on H3 peptide (2.5 μM). […] (b) (i–iii) OC9 enhances demethylation of H3K4me3K9me2 by KDM7A (0.55 μM) on H3 peptide (2.5 μM), and (iv) enhances KDM7A (0.5 μM) demethylation of calf histone extracts (50 μg). […] Inset MALDI-TOF-MS overlays are from respective highest OC9 concentration points compared to DMSO alone. KDM7 PHD-finger only proteins had no demethylase activity (Fig. S40 ^†). Calf histone H3K9me2 was quantitated relative to H4 band intensities at each time point, normalised to DMSO at t = 0. Full Western blots available in Fig. S42. ^† Relative rates (Krel min^−1) from a one-phase decay model, average from N = 3 independent experiments. […] The enzyme heading of the panel (KDM7B / KDM7A) was put in front of them. / DMSO is the vehicle control. Its printed rates (0.30 min^-1 in a, 0.04 min^-1 in b) are included because they are printed with its name.
In contrast to KDM7B, KDM7A lacks activity against H3K4me3K9me2, but demethylates H3_1–21K9me2.[57] OC9, however, restored the activity of KDM7A against H3_1–21K4me3K9me2 from <5% to a level (∼30%) that approached demethylation on H3_1–21K9me2 with DMSO alone (∼40%) (Fig. 5b and S39 ^†). […]

KDM7B PHD [1] = molecular target: T1, KDM7B PHD (Homo sapiens, UniProt Q9UPP1); assay: BLI binding; set-up: key to BLI Screening, KDM7B PHD: (+) = binding; (-) = no binding; (NS) = non-specific; conditions: for BLI Screening, KDM7B PHD: qualitative assessment of binding by BLI
T1 construct: KDM7B 1-66; made in house
T1 sequence (Q9UPP1 1-66 isoform Q9UPP1-2): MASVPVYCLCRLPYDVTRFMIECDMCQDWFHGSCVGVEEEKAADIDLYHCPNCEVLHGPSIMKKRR
Excerpt: (§1) Figure S2. BLI for KDM7 proteins with cyclic peptides.
(§2) BLI traces for b inding to KDM7 protein domains immobilised by C-terminal His -tag on Ni -NTA
(§3) biosensors, against cyclic peptides. Response trace for each peptide concentration is represented by
(§4) a different colour, with the fitted curves overlaid in black.
(§5) concentration plotted, with 2-fold dilutions thereafter. Dual domain = PHD+JmjC. […]
(§6) against KDM7 and other protein domains. t1/2 = half life (0.693 / Koff)
(§7) (1 picture or pasted object on this page, not shown here)

KDM7B dual domain = molecular target: T2, KDM7B dual domain (Homo sapiens, UniProt Q9UPP1); assay: HDX-MS; type: binding; conditions: relative to DMSO
T2 construct: dual domain (PHD-JmjC) of KDM7B; His-tag (C); made in house
T2 sequence (Q9UPP1 37-483 limits assumed): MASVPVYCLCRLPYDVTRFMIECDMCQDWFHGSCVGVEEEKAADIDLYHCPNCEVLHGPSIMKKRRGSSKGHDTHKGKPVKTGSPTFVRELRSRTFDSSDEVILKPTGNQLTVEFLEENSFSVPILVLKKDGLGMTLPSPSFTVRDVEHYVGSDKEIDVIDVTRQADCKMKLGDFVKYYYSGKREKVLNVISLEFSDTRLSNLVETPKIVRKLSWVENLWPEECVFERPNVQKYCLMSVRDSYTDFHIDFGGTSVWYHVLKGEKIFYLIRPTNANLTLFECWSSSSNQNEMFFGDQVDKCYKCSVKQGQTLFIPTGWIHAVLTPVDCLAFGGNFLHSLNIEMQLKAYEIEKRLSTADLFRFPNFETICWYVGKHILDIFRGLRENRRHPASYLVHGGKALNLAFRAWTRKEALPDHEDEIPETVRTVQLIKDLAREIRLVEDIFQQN
Excerpt: To further evaluate the interactions of OC9 with KDM7B we used hydrogen–deuterium exchange mass spectrometry (HDX-MS), which informs on protein dynamics by following deuterium incorporation into the protein amide backbone (Fig. 2).
The residue level view was generated by averaging mass changes across overlapping peptide fragments. Supporting data available in ESI. ^† K4me3 binding aromatic cage residues (‘YYMW’ Fig. 1a) are indicated by red asterix.

KDM7B Dual (PHD+JmjC) = molecular target: T3, KDM7B Dual (PHD+JmjC) (Homo sapiens, UniProt Q9UPP1); assay: BLI binding; set-up: key to BLI Screening, KDM7B Dual: (+) = binding; (-) = no binding; (NS) = non-specific; conditions: for koff / kon / Kd: 1:1 binding model; for Kd: His-tagged protein on Ni-NTA biosensors; for BLI Screening, KDM7B Dual: qualitative assessment of binding by BLI
T3 construct: Dual domain = PHD+JmjC; made in house
T3 sequence (Q9UPP1 37-483 limits assumed): as above
Excerpt: as §1, §2, §3, §4, §5, §6, §7

KDM7B JmjC = molecular target: T4, KDM7B JmjC (Homo sapiens, UniProt Q9UPP1); assay: BLI binding; set-up: key to BLI Screening, KDM7B JmjC: (+) = binding; (-) = no binding; (NS) = non-specific; conditions: for Kd: read-out: BLI pKD, KDM7B JmjC (converted); for BLI Screening, KDM7B JmjC: qualitative assessment of binding by BLI
T4 construct: made in house
T4 sequence (Q9UPP1 231-387 limits assumed): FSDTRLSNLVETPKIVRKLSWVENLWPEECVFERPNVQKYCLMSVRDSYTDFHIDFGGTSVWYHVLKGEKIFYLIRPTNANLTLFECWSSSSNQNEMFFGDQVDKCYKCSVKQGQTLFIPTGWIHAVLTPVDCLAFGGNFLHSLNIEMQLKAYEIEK
Excerpt: as §1, §2, §3, §4, §5, §6, §7

KDM7B Dual = molecular target: T5, KDM7B Dual (Homo sapiens, UniProt Q9UPP1); assay: ITC binding
T5 construct: Dual = PHD+JmjC; made in house
T5 sequence (Q9UPP1 37-483 limits assumed): as the sequence (Q9UPP1 37-483 limits assumed) above
Experimental: Figure S10. ITC results: Tabulated values from 1:1 binding model and conditions
ITC buffer = 50 mM HEPES, 100 mM NaCl, pH 7.4, 0.2 µm filtered), at 25 °C. Dual = PHD+JmjC. HisTrx
= His 6+thioredoxin tag, GST = glutathione S -transferase tag, ZB = Z -basic tag. Syringe contained
peptide solution in buffer. Cell contained protein solution in buffer.
as §7

KDM7B PHD [2] = molecular target: T1, KDM7B PHD; assay: AlphaScreen displacement of H3 1-21K4me3-Bt; type: binding; conditions: for reduced potency relative to OC9: affinity (BLI) and displacement (AS) assays, KDM7B PHD-finger
Excerpt: The functional effect of OC9 on the PHD-finger was further assessed using an AlphaScreen (AS) based proximity assay. […]

[3] = His-tagged protein on Ni-NTA biosensors, 1:1 binding model, read-out: BLI KD, KDM7B PHD

CN(C)NC(=O)CCC(=O)O [DAM, daminozide, reference compound]
IC50 (KDM7A dual domain): 251 nM

CC[C@H](C)[C@@H]1NC(=O)[C@H](CC(C)C)NC(=O)[C@H](CCCNC(=N)N)NC(=O)[C@H](CCCNC(=N)N)NC(=O)[C@@H]2CCCN2C(=O)[C@H](Cc2ccc(O)cc2)NC(=O)[C@H](C(C)C)NC(=O)[C@H](CC(C)C)NC(=O)[C@H](CC(C)C)NC(=O)[C@H](C(C)C)NC(=O)[C@@H]2CCCN2C(=O)[C@H](Cc2ccc(O)cc2)NC(=O)CSC[C@@H](C(N)=O)NC1=O [OC3] (HELM PEPTIDE1{[O=C(C[*:3])[*:2]].Y.P.V.L.L.V.Y.P.R.R.L.I.C.[am]}$PEPTIDE1,PEPTIDE1,1:R3-14:R3$$$V2.0)
Kd (KDM7B PHD [1]; [3]): > 1000 nM
BLI Screening, KDM7B PHD (KDM7B PHD [1]): -
HDX-MS effect on deuterium uptake, KDM7B dual domain (KDM7B dual domain): affected deuterium uptake in both domains
koff (KDM7B Dual (PHD+JmjC)): 0.0148 ± 0.0001 s⁻¹
kon (KDM7B Dual (PHD+JmjC)): 502000 ± 5000 M⁻¹ s⁻¹
Kd (KDM7B Dual (PHD+JmjC)): 29.5 nM
BLI Screening, KDM7B Dual (KDM7B Dual (PHD+JmjC)): +
Kd (KDM7B JmjC; 1:1 binding model): > 1000 nM
BLI Screening, KDM7B JmjC (KDM7B JmjC): -
Kd (KDM7B Dual; 50 mM HEPES, 100 mM NaCl, pH 7.4, 25 °C, 1:1 binding model): 163 nM
ITC ΔH, KDM7B Dual (KDM7B Dual; 25 °C): -16.3 ± 1.5 kJ mol -1
ITC N, KDM7B Dual (KDM7B Dual; stoichiometry): 1.37 ± 0.05

CC[C@H](C)[C@@H]1NC(=O)[C@H](Cc2c[nH]c3ccccc23)NC(=O)[C@H](CO)NC(=O)[C@H](CC(C)C)NC(=O)[C@H](Cc2ccc(O)cc2)NC(=O)[C@H](Cc2ccc(O)cc2)NC(=O)[C@H]([C@@H](C)O)NC(=O)CNC(=O)[C@H](Cc2ccc(O)cc2)NC(=O)[C@H](C(C)C)NC(=O)[C@H](Cc2ccc(O)cc2)NC(=O)CSC[C@@H](C(N)=O)NC(=O)[C@@H]2CCCN2C1=O [OC4] (HELM PEPTIDE1{[O=C(C[*:3])[*:2]].Y.V.Y.G.T.Y.Y.L.S.W.I.P.C.[am]}$PEPTIDE1,PEPTIDE1,1:R3-14:R3$$$V2.0)
Kd (KDM7B PHD [1]; [3]): > 1000 nM
BLI Screening, KDM7B PHD (KDM7B PHD [1]): -
koff (KDM7B Dual (PHD+JmjC)): 0.0124 ± 0.0001 s⁻¹
kon (KDM7B Dual (PHD+JmjC)): 212000 ± 2000 M⁻¹ s⁻¹
Kd (KDM7B Dual (PHD+JmjC)): 58.6 nM
BLI Screening, KDM7B Dual (KDM7B Dual (PHD+JmjC)): +
koff (KDM7B JmjC; 1:1 binding model): 0.0245 ± 0.0001 s⁻¹
kon (KDM7B JmjC; 1:1 binding model): 249000 ± 3000 M⁻¹ s⁻¹
Kd (KDM7B JmjC; 1:1 binding model): 100 nM
BLI Screening, KDM7B JmjC (KDM7B JmjC): +

CC(C)C[C@@H]1NC(=O)[C@H](Cc2ccc(O)cc2)NC(=O)[C@H](Cc2ccc(O)cc2)NC(=O)CSC[C@@H](C(N)=O)NC(=O)[C@H]([C@@H](C)O)NC(=O)[C@H](C)NC(=O)[C@H](Cc2ccccc2)NC(=O)[C@H](C(C)C)NC(=O)[C@H](CO)NC(=O)[C@@H]2CCCN2C(=O)[C@H](Cc2ccc(O)cc2)NC(=O)[C@@H]2CCCN2C(=O)[C@H](Cc2c[nH]cn2)NC(=O)[C@H]([C@@H](C)O)NC1=O [R12A] (HELM PEPTIDE1{[O=C(C[*:3])[*:2]].Y.Y.L.T.H.P.Y.P.S.V.F.A.T.C.[am]}$PEPTIDE1,PEPTIDE1,1:R3-15:R3$$$V2.0; C-terminus assumed)
faster off-rate by BLI (vs OC9) (KDM7B PHD [1]): ~100 ×
reduced potency relative to OC9 (KDM7B PHD [2]): much weaker

CC(C)C[C@@H]1NC(=O)[C@H](Cc2ccc(O)cc2)NC(=O)[C@H](Cc2ccc(O)cc2)NC(=O)CSC[C@@H](C(N)=O)NC(=O)[C@H]([C@@H](C)O)NC(=O)[C@H](CCCNC(=N)N)NC(=O)[C@H](Cc2ccccc2)NC(=O)[C@H](C(C)C)NC(=O)[C@H](C)NC(=O)[C@@H]2CCCN2C(=O)[C@H](Cc2ccc(O)cc2)NC(=O)[C@@H]2CCCN2C(=O)[C@H](Cc2c[nH]cn2)NC(=O)[C@H]([C@@H](C)O)NC1=O [S9A] (HELM PEPTIDE1{[O=C(C[*:3])[*:2]].Y.Y.L.T.H.P.Y.P.A.V.F.R.T.C.[am]}$PEPTIDE1,PEPTIDE1,1:R3-15:R3$$$V2.0; C-terminus assumed)
reduced potency relative to OC9 (KDM7B PHD [2]): much weaker

CC(C)C[C@@H]1NC(=O)[C@H](Cc2ccc(O)cc2)NC(=O)[C@H](Cc2ccc(O)cc2)NC(=O)CSC[C@@H](C(N)=O)NC(=O)[C@H]([C@@H](C)O)NC(=O)[C@H](CCCNC(=N)N)NC(=O)[C@H](Cc2ccccc2)NC(=O)[C@H](CCCCN)NC(=O)[C@H](CO)NC(=O)[C@@H]2CCCN2C(=O)[C@H](Cc2ccc(O)cc2)NC(=O)[C@@H]2CCCN2C(=O)[C@H](Cc2c[nH]cn2)NC(=O)[C@H]([C@@H](C)O)NC1=O [V10K] (HELM PEPTIDE1{[O=C(C[*:3])[*:2]].Y.Y.L.T.H.P.Y.P.S.K.F.R.T.C.[am]}$PEPTIDE1,PEPTIDE1,1:R3-15:R3$$$V2.0; C-terminus assumed)
Kd (KDM7B PHD [1]; read-out: BLI KD, KDM7B PHD-finger): > 10000 nM
IC50 (KDM7B PHD [2]; read-out: IC50^AS, KDM7B PHD-finger): > 10000 nM

CC(C)C[C@@H]1NC(=O)[C@H](CO)NC(=O)[C@@H]2CCCN2C(=O)[C@H](Cc2ccc(O)cc2)NC(=O)[C@@H]2CCCN2C(=O)[C@H](Cc2c[nH]cn2)NC(=O)[C@H]([C@@H](C)O)NC(=O)[C@H](CC(C)C)NC(=O)[C@H](Cc2ccc(O)cc2)NC(=O)[C@H](Cc2ccc(O)cc2)NC(=O)CSC[C@@H](C(N)=O)NC(=O)[C@H]([C@@H](C)O)NC(=O)[C@H](CCCNC(=N)N)NC(=O)[C@H](Cc2ccccc2)NC1=O [V10L] (HELM PEPTIDE1{[O=C(C[*:3])[*:2]].Y.Y.L.T.H.P.Y.P.S.L.F.R.T.C.[am]}$PEPTIDE1,PEPTIDE1,1:R3-15:R3$$$V2.0; C-terminus assumed)
reduction in KD in BLI compared to OC9 (KDM7B PHD [1]): > 80 fold
reduction in t1/2 in BLI compared to OC9 (KDM7B PHD [1]): > 75 fold
reduction in IC50^AS compared to OC9 (KDM7B PHD [2]): 10 fold

Ac-YYLTHPYPSVFRTC-NH2 (N-terminus and C-terminus assumed) [Linear]
reduced potency relative to OC9 (KDM7B PHD [2]): > 100 fold

YIVPSPIWYHWVAC (also: sidechain bridge or staple (positions not given here)) [OC10]
BLI Screening, KDM7B Dual (KDM7B Dual (PHD+JmjC)): -

YLVRIYPNKLIWWC (also: sidechain bridge or staple (positions not given here)) [OC6, enriched cyclic peptide, non-specific in BLI]
BLI Screening, KDM7B PHD (KDM7B PHD [1]): NS
BLI Screening, KDM7B Dual (KDM7B Dual (PHD+JmjC)): NS
BLI Screening, KDM7B JmjC (KDM7B JmjC): NS

YPYILYPSVYTTNC (also: sidechain bridge or staple (positions not given here)) [OC8]
BLI Screening, KDM7B Dual (KDM7B Dual (PHD+JmjC)): -
